Measured values taken from ChEMBL document CHEMBL4354814 (J Med Chem, 2019).
pEC50, pKi: −log10 of the molar value. Activity calls are given as the source filed them. No cut-off for these calls is given here.

What was measured:
[1] = target: Cholinesterase (Homo sapiens) (UniProt P06276); test: Inhibition of human BChE at 10 uM using butyrylthiocholine iodide as substrate preincubated for 20 mins followed by substrate addition and measured for 3 mins by spectrophotometry based Ellman's method relative to control
Acetylcholinesterase [2] = target: T1, Acetylcholinesterase (Homo sapiens, UniProt P22303); test: Inhibition of recombinant human AChE at 10 uM using acetylthiocholine iodide as substrate preincubated for 20 mins followed by substrate addition and measured for 3 mins by spectrophotometry based Ellman's method relative to control
[3] = target: Cannabinoid receptor 1 (Homo sapiens) (UniProt P21554); test: Binding affinity at human CB1R expressed in CHO cells at 10 uM incubated for 3 hrs by microbeta scintillation counting relative to control; type: cell-based
Cannabinoid receptor 2 [4] = target: T2, Cannabinoid receptor 2 (Homo sapiens, UniProt P34972); test: Agonist activity at CB2R in human U266 cells assessed as reduction in MIF gene expression at 50 uM incubated for 2 hrs by qRT-PCR analysis; type: cell-based
Cannabinoid receptor 2 [5] = target: T2, Cannabinoid receptor 2; test: Agonist activity at CB2R in human U266 cells assessed as reduction in STAT3 gene expression at 50 uM incubated for 2 hrs by qRT-PCR analysis; type: cell-based
Cannabinoid receptor 2 [6] = target: T2, Cannabinoid receptor 2; test: Agonist activity at CB2R in human U266 cells assessed as reduction in MIF gene expression at 50 uM pretreated for 30 mins with AM630 and incubated for 2 hrs by qRT-PCR analysis; type: cell-based
Cannabinoid receptor 2 [7] = target: T2, Cannabinoid receptor 2; test: Agonist activity at CB2R in human U266 cells assessed as reduction in STAT3 gene expression at 50 uM pretreated for 30 mins with AM630 incubated for 2 hrs by qRT-PCR analysis; type: cell-based
Cannabinoid receptor 2 [8] = target: T2, Cannabinoid receptor 2; test: biochemical
Cannabinoid receptor 2 [9] = target: T2, Cannabinoid receptor 2; test: Agonist activity at human CB2R expressed in CHO-K1 cells assessed as increase in intracellular calcium mobilization by calcein4-AM dye based fluorescence assay relative to control; type: functional, cell-based
[10] = target: Cannabinoid receptor 1 (Homo sapiens) (UniProt P21554); test: Agonist activity at human CB1R expressed in CHO-K1 cells assessed as increase in intracellular calcium mobilization by calcein4-AM dye based fluorescence assay; type: functional, cell-based
Acetylcholinesterase [11] = target: T1, Acetylcholinesterase
Description: Inhibition of recombinant human AChE assessed as inhibition constant for enzyme-inhibitor complex using acetylthiocholine iodide as substrate preincubated for 20 mins followed by substrate addition and measured for 3 mins by spectrophotometry based Lineweaver-Burk plot analysis

Acetylcholinesterase [12] = target: T1, Acetylcholinesterase; remark: listed apart in the source
Description: Inhibition of recombinant human AChE assessed as inhibition constant for enzyme-substrate-inhbitor complex using acetylthiocholine iodide as substrate preincubated for 20 mins followed by substrate addition and measured for 3 mins by spectrophotometry based Lineweaver-Burk plot analysis

Cannabinoid receptor 2 [13] = target: T2, Cannabinoid receptor 2

T1 sequence (P22303 whole entry): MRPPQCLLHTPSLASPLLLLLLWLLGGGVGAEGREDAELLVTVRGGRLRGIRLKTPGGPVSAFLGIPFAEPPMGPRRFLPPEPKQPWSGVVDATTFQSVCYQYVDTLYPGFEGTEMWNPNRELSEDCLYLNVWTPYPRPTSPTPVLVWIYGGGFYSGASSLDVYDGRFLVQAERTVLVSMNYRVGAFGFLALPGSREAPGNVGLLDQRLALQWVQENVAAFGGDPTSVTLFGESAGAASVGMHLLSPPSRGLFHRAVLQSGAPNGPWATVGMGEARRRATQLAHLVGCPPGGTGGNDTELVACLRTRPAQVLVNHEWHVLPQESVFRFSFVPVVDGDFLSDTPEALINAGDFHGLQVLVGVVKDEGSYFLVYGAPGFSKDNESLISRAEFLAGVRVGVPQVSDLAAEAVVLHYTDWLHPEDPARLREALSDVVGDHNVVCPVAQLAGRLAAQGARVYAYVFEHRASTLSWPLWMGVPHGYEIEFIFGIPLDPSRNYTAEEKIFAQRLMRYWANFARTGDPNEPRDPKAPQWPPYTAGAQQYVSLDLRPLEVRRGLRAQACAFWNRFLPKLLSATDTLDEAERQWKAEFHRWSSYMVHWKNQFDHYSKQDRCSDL
Chain of Cannabinoid receptor 1 (Homo sapiens) (P21554 whole entry): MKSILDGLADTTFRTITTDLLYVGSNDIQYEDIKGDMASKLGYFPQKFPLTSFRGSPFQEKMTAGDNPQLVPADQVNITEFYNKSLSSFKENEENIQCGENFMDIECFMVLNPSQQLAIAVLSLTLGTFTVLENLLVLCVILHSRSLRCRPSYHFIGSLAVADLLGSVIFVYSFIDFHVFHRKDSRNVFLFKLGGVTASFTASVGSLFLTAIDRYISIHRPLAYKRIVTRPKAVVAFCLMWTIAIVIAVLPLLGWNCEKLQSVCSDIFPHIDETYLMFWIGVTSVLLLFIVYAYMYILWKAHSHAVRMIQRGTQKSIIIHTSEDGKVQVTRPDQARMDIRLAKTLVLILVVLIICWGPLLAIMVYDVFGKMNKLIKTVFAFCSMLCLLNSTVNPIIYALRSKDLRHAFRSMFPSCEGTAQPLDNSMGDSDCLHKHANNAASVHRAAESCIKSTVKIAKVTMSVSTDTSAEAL
T2 sequence (P34972 whole entry): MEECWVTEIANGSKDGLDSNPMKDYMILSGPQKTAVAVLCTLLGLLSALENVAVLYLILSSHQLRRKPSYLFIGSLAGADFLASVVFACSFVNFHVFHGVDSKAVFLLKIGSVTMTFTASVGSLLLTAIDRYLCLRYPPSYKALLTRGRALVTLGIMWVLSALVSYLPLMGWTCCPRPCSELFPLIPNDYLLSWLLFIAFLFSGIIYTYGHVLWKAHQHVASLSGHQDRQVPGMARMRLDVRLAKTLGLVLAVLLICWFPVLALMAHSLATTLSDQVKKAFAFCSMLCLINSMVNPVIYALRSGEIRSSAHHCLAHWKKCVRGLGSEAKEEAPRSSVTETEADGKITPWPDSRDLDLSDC
Chain of Cholinesterase (Homo sapiens) (P06276 whole entry): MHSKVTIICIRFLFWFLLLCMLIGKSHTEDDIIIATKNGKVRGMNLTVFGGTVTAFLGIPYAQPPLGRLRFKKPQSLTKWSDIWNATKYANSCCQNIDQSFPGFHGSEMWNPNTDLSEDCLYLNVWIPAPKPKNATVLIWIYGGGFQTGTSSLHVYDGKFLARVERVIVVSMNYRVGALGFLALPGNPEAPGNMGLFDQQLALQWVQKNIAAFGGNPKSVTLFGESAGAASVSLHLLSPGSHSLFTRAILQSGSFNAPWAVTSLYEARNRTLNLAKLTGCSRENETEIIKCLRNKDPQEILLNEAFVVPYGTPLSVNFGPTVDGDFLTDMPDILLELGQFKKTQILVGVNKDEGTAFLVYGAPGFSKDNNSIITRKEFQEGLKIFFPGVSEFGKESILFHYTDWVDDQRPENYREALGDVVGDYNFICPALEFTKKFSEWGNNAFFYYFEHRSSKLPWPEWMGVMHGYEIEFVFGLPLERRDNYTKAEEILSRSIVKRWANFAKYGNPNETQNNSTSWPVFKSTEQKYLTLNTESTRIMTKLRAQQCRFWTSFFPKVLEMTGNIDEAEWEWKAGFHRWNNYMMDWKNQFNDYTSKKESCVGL

Structure (SMILES) | inhibition [1] | inhibition (Acetylcholinesterase [2]) | Activity [3] | Activity (Cannabinoid receptor 2 [4]) | Activity (Cannabinoid receptor 2 [5]) | Activity (Cannabinoid receptor 2 [6]) | Activity (Cannabinoid receptor 2 [7]) | pKi (Cannabinoid receptor 2 [8]) | Emax (Cannabinoid receptor 2 [9]) | Activity [10] | pKi (Acetylcholinesterase [11]) | pKi (Acetylcholinesterase [12]) | pEC50 (Cannabinoid receptor 2 [13])
CCOc1ccc(Cc2nc3cc(C(=O)N(CC)CC)ccc3n2CCC(C)C)cc1 | < 10% | < 10% | 24% | Active | Active | Active | Active | – | – | – | – | – | –
CCOc1ccc(Cc2nc3cc(C(=O)N(CC)CC)ccc3n2CCCNc2c3c(nc4ccccc24)CCCC3)cc1 | – | – | – | – | – | – | – | 4.51 | – | – | – | – | –
CCOc1ccc(Cc2nc3cc(C(=O)N(CC)CC)ccc3n2CCCCCCNc2c3c(nc4ccccc24)CCCC3)cc1 | – | – | – | Active | Active | Active | Active | – | 51% | inactive | 7.05 | 6.69 | –
CCOc1ccc(Cc2nc3cc(C(=O)NCCCCNc4c5c(nc6ccccc46)CCCC5)ccc3n2CCC(C)C)cc1 | – | – | – | Active | Active | Active | Active | – | 39% | inactive | – | – | 6.04
CCOc1ccc(Cc2nc3cc(C(=O)NCCSSCCNc4c5c(nc6ccccc46)CCCC5)ccc3n2CCC(C)C)cc1 | – | – | – | – | – | – | – | – | – | – | 7.78 | 7.55 | –
CCOc1ccc(Cc2nc3cc(C(=O)NCCOCCOCCNc4c5c(nc6ccccc46)CCCC5)ccc3n2CCC(C)C)cc1 | – | – | – | Active | Active | Active | Active | – | – | – | – | – | –
